Assay results: US8497385B2, “Bryostatin analogues, synthetic methods and uses” (The Board of Trustees of the Leland Stanford Junior …, priority 2007, dated 2013)

Experiments:
BT-549 = assay: NCI growth inhibition, BT-549 (Breast); assay type: cell-based, human
MI4 = assay: NCI growth inhibition, MI4 (Melanoma); assay type: cell-based, human
A549/ATCC = assay: NCI growth inhibition, A549/ATCC (NSC Lung); assay type: cell-based, human
LOX IMVI = assay: NCI growth inhibition, LOX IMVI (Melanoma); assay type: cell-based, human
HCT-116 = assay: NCI growth inhibition, HCT-116 (Colon); assay type: cell-based, human
SW-620 = assay: NCI growth inhibition, SW-620 (Colon); assay type: cell-based, human
UACC-257 = assay: NCI growth inhibition, UACC-257 (Melanoma); assay type: cell-based, human
SK-MEL-2 = assay: NCI growth inhibition, SK-MEL-2 (Melanoma); assay type: cell-based, human
HL-60(TB) = assay type: cell-based, human
DU-145 = assay: NCI growth inhibition, DU-145 (Prostate); assay type: cell-based, human
ACHN = assay: NCI growth inhibition, ACHN (Renal); assay type: cell-based, human
TK-10 = assay: NCI growth inhibition, TK-10 (Renal); assay type: cell-based, human
KM12 = assay: NCI growth inhibition, KM12 (Colon); assay type: cell-based, human
UACC-62 = assay: NCI growth inhibition, UACC-62 (Melanoma); assay type: cell-based, human
OVCAR-5 = assay: NCI growth inhibition, OVCAR-5 (Ovarian); assay type: cell-based, human
OVCAR-8 = assay: NCI growth inhibition, OVCAR-8 (Ovarian); assay type: cell-based, human
SF-268 = assay: NCI growth inhibition, SF-268 (CNS); assay type: cell-based, human
A498 = assay: NCI growth inhibition, A498 (Renal); assay type: cell-based, human
MDA-MB-231/ATCC = assay: NCI growth inhibition, MDA-MB-231/ATCC (Breast); assay type: cell-based, human
SK-MEL-28 = assay: NCI growth inhibition, SK-MEL-28 (Melanoma); assay type: cell-based, human
COLO 205 = assay: NCI growth inhibition, COLO 205 (Colon); assay type: cell-based, human
SNB-75 = assay: NCI growth inhibition, SNB-75 (CNS); assay type: cell-based, human
NCI-H460 = assay: NCI growth inhibition, NCI-H460 (NSC Lung); assay type: cell-based, human
SK-OV-3 = assay: NCI growth inhibition, SK-OV-3 (Ovarian); assay type: cell-based, human
PKCδ-C1B = PKCδ-C1B (Homo sapiens (Human), UniProt Q05655); assay: PKCδ-C1B Assay; assay type: binding
HCT-15 = assay: NCI growth inhibition, HCT-15 (Colon); assay type: cell-based, human
MCF7 = assay: NCI growth inhibition, MCF7 (Breast); assay type: cell-based, human
OVCAR-3 = assay: NCI growth inhibition, OVCAR-3 (Ovarian); assay type: cell-based, human
OVCAR-4 = assay: NCI growth inhibition, OVCAR-4 (Ovarian); assay type: cell-based, human
SF-539 = assay: NCI growth inhibition, SF-539 (CNS); assay type: cell-based, human
SNB-19 = assay: NCI growth inhibition, SNB-19 (CNS); assay type: cell-based, human
MOLT-4 = assay: NCI growth inhibition, MOLT-4 (Leukemia); assay type: cell-based, human
NCI-H322M = assay: NCI growth inhibition, NCI-H322M (NSC Lung); assay type: cell-based, human
IGROVI = assay: NCI growth inhibition, IGROVI (Ovarian); assay type: cell-based, human
786-0 = assay: NCI growth inhibition, 786-0 (Renal); assay type: cell-based, human
U251 = assay: NCI growth inhibition, U251 (CNS); assay type: cell-based, human
T-47D = assay: NCI growth inhibition, T-47D (Breast); assay type: cell-based, human
UO-31 = assay: NCI growth inhibition, UO-31 (Renal); assay type: cell-based, human

PKCδ-C1B, sequence (Q05655 whole entry, looked up): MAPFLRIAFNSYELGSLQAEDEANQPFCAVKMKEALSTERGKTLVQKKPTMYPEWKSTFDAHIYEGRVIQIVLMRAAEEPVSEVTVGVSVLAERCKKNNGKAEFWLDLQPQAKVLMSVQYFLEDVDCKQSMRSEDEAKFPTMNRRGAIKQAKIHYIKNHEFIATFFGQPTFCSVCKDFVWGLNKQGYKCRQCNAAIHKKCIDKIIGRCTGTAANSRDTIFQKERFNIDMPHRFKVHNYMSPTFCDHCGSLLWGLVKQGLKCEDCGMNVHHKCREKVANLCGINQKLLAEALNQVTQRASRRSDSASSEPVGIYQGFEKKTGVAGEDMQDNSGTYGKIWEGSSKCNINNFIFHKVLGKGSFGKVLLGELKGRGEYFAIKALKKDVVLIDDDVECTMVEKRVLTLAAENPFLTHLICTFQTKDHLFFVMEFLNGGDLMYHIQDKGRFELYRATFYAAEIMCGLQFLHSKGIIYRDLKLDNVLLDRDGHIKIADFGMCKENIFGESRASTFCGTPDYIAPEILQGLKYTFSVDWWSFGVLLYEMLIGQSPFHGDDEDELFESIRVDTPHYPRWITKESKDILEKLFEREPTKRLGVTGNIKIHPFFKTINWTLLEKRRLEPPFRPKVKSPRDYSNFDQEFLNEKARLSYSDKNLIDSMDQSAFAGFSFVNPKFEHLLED

`CCCCCCCC(=O)OC1C(=CC(=O)OC)CC2CC(CO)OC(=O)CC(O)CC3CCCC(CC4CCOC(C=CC(C)(C)C1(O)O2)O4)O3` (stereo not drawn) [Formula IIa (702.1)] was tested, and the “Difference of GI50 (log), Desmethyl vs Bryo-1” value (“Difference of GI50 (log)” below) (BT-549; BT-549) was 0.39, the GI50 (BT-549; BT-549, Breast) was −4.71 log of molar concentration and the “Difference of GI50 (log)” value (MI4; MI4) was −0.26. For the same molecule, the GI50 (MI4; MI4, Melanoma) was −5.26 log of molar concentration, the “Difference of GI50 (log)” value (A549/ATCC) was −1.42 and the GI50 (A549/ATCC; NSC Lung) was −6.62 log of molar concentration. The “Difference of GI50 (log)” value (LOX IMVI) was −0.37, the GI50 (LOX IMVI; Melanoma) was −5.47 log of molar concentration and the “Difference of GI50 (log)” value (HCT-116; HCT-116) was −0.02. For the same molecule, the GI50 (HCT-116; HCT-116, Colon) was −5.32 log of molar concentration, the “Difference of GI50 (log)” value (SW-620; SW-620) was 0.38 and the GI50 (SW-620; SW-620, Colon) was −5.12 log of molar concentration. For the same molecule, the “Difference of GI50 (log)” value (UACC-257; UACC-257) was −0.03, the GI50 (UACC-257; UACC-257, Melanoma) was −5.13 log of molar concentration and the “Difference of GI50 (log)” value (SK-MEL-2; SK-MEL-2) was 0.18. The GI50 (SK-MEL-2; SK-MEL-2, Melanoma) was −5.02 log of molar concentration, the “Difference of GI50 (log)” value (HL-60(TB)) was −0.14 and the GI50 (HL-60(TB)) was −5.84 log of molar concentration. For the same molecule, the “Difference of GI50 (log)” value (DU-145; DU-145) was −0.02, the GI50 (DU-145; DU-145, Prostate) was −5.02 log of molar concentration and the “Difference of GI50 (log)” value (ACHN) was −0.44. The GI50 (ACHN; Renal) was −5.94 log of molar concentration, the “Difference of GI50 (log)” value (TK-10; TK-10) was −2.03 and the GI50 (TK-10; TK-10, Renal) was −7.03 log of molar concentration. The “more active than bryostatin-1” value (TK-10; TK-10, Renal) was “more than 2 orders of magnitude”, the “Difference of GI50 (log)” value (KM12; KM12) was −0.14 and the GI50 (KM12; KM12, Colon) was −5.34 log of molar concentration. For the same molecule, the “Difference of GI50 (log)” value (UACC-62; UACC-62) was 0.19, the GI50 (UACC-62; UACC-62, Melanoma) was −5.11 log of molar concentration and the “Difference of GI50 (log)” value (OVCAR-5; OVCAR-5) was −0.28. The GI50 (OVCAR-5; OVCAR-5, Ovarian) was −5.28 log of molar concentration, the “Difference of GI50 (log)” value (OVCAR-8; OVCAR-8) was 0.33 and the GI50 (OVCAR-8; OVCAR-8, Ovarian) was −4.77 log of molar concentration. The “Difference of GI50 (log)” value (SF-268; SF-268) was 0.13, the GI50 (SF-268; SF-268, CNS) was −4.97 log of molar concentration and the “Difference of GI50 (log)” value (A498; A498) was −1.38. For the same molecule, the GI50 (A498; A498, Renal) was −6.38 log of molar concentration, the “Difference of GI50 (log)” value (MDA-MB-231/ATCC) was −0.49 and the GI50 (MDA-MB-231/ATCC; Breast) was −5.69 log of molar concentration. For the same molecule, the “Difference of GI50 (log)” value (SK-MEL-28; SK-MEL-28) was 0.43, the GI50 (SK-MEL-28; SK-MEL-28, Melanoma) was −4.67 log of molar concentration and the “Difference of GI50 (log)” value (COLO 205; COLO 205) was −1.68. The GI50 (COLO 205; COLO 205, Colon) was −7.08 log of molar concentration, the “Difference of GI50 (log)” value (SNB-75; SNB-75) was 0.53 and the GI50 (SNB-75; SNB-75, CNS) was −4.97 log of molar concentration. For the same molecule, the “Difference of GI50 (log)” value (NCI-H460; NCI-H460) was −2.40, the GI50 (NCI-H460; NCI-H460, NSC Lung) was <−8 log of molar concentration and the “more active than bryostatin-1” value (NCI-H460; NCI-H460, NSC Lung) was “more than 2 orders of magnitude”. The “Difference of GI50 (log)” value (SK-OV-3; SK-OV-3) was 0.80, the GI50 (SK-OV-3; SK-OV-3, Ovarian) was −4.3 log of molar concentration and the “activity in PKCδ-C1B assay relative to comparison analogues” value (PKCδ-C1B; 702.1 vs C26 methyl-containing analogue, 48, 49 vs other C20 esters) was “significantly higher activity”. The Ki (PKCδ-C1B; competition with tritiated phorbol 12,13-dibutyrate) was 0.3 ± 0.07 nM, the GI50 (HCT-15) was −4.76 log of molar concentration and the “Difference of GI50 (log)” value (MCF7; MCF7) was −0.20. For the same molecule, the GI50 (MCF7; MCF7, Breast) was −5.4 log of molar concentration, the “Difference of GI50 (log)” value (OVCAR-3; OVCAR-3) was 0.27 and the GI50 (OVCAR-3; OVCAR-3, Ovarian) was −4.83 log of molar concentration. The “Difference of GI50 (log)” value (OVCAR-4; OVCAR-4) was 0.35, the GI50 (OVCAR-4; OVCAR-4, Ovarian) was −5.15 log of molar concentration and the “Difference of GI50 (log)” value (SF-539; SF-539) was −0.77. For the same molecule, the GI50 (SF-539; SF-539, CNS) was −5.77 log of molar concentration, the “Difference of GI50 (log)” value (SNB-19; SNB-19) was −0.20 and the GI50 (SNB-19; SNB-19, CNS) was −5.2 log of molar concentration. For the same molecule, the “Difference of GI50 (log)” value (MOLT-4; MOLT-4) was −2.50, the GI50 (MOLT-4; MOLT-4, Leukemia) was <−8.0 log of molar concentration and the “more active than bryostatin-1” value (MOLT-4; MOLT-4, Leukemia) was “more than 2 orders of magnitude”. For the same molecule, the “Difference of GI50 (log)” value (NCI-H322M) was 1.62, the GI50 (NCI-H322M; NSC Lung) was −4.38 log of molar concentration and the “Difference of GI50 (log)” value (IGROVI) was 0.42. The GI50 (IGROVI; Ovarian) was −4.88 log of molar concentration, the “Difference of GI50 (log)” value (786-0; 786-0) was −0.26 and the GI50 (786-0; 786-0, Renal) was −5.46 log of molar concentration. The “Difference of GI50 (log)” value (U251; U251) was −0.30, the GI50 (U251; U251, CNS) was −5.4 log of molar concentration and the “Difference of GI50 (log)” value (T-47D) was 0.18. For the same molecule, the GI50 (T-47D; Breast) was −5.02 log of molar concentration, the “Difference of GI50 (log)” value (UO-31; UO-31) was 0.75 and the GI50 (UO-31; UO-31, Renal) was −4.85 log of molar concentration.
